In patent US20240050564A1, “COMBINATION THERAPY USING AN ANTI-FUCOSYL-GM1 ANTIBODY” (BRISTOL-MYERS SQUIBB COMPANY, priority 2021, published 2024):
Values belong to the compound of their own block, whether it stands above or below them.

How the values were obtained:
DMS79 cells [1] = experiment: DMS-79 SCLC tumor model in mice, anti-fucosyl-GM1 and etoposide (Example 2); type: in vivo; conditions: BMS-986012 3 mg/kg i.p. days 7, 11, 15, 18, 21; etoposide 15 mg/kg i.p. days 7, 9, 11 (alone with isotype control antibody)
Method: Median tumor volumes are presented for groups of 8 mice at each data point. See Example 2.
(§1) A combination therapy method of the present invention involving antibody to fucosyl-GM1 and cisplatin was tested in the DMS-79 SCLC tumor model in mice ([…] mice per group). Bepler et al. (1989) Oncogene 4:45; Pettengill (1980) Cancer 45: 906; Pettengill et al. (1980) Exp. Cell Biol. 48:279. Briefly, DMS79 cells were cultured in RPMI with 10% fetal bovine serum (FBS), 2 mM L-glutamine, […] sodium bicarbonate, 4.5 g/L glucose, 10 mM HEPES, and 10 μM NaPyr prior to subcutaneous implantation in the right flanks of male C.B17 SCID mice (5 million cells in 0.1 mL phosphate-buffered saline (PBS) and 0.1 mL […]® gelatinous protein mixture per flank). When tumors reached a mean or median size of 80-155 mm^3 estimated by L×W×H/2 using a digital calipers, mice were randomized into treatment groups (N=8 mice per group).
A combination therapy method of the present invention involving antibody to fucosyl-GM1 and etoposide was tested in the DMS-79 SCLC tumor model in mice (N=9 mice per group), essentially as described in Example 1. Anti-fucosyl-GM1 antibody BMS-986012 was administered at 3 mg/kg i.p. to mice on days 7, 11, 15, 18 and 21 post-implantation, and etoposide was administered at 15 mg/kg i.p. on days 7, 9 and 11. […]

[2] = tested on: small cell lung cancer (SCLC); conditions: nivolumab monotherapy, 147 patients; cited from earlier work
[3] = Binding to closely related molecule GM1
Source text: (§2) BMS-986012 is a first-in-class fully human monoclonal antibody (mAb) that specifically binds to the fucosyl-GM1 ganglioside. […] Because fucosyl-GM1 is preferentially found on the surface of lung cancer cells, BMS-986012 is particularly well suited to treating lung cancer, such as small cell lung cancer (SCLC).

[4] = non-fucosylated, compared to an antibody with typical mammalian glycosylation; cited from earlier work
DMS79 cells [5] = experiment: DMS-79 SCLC tumor model in mice, anti-fucosyl-GM1 and cisplatin (Example 1); type: in vivo, male C.B17 SCID mice; conditions: BMS-986012 0.3 mg/kg i.p. days 7, 10, 13, 17, 21; cisplatin 3 mg/kg days 7, 14, 21, 28 (alone with isotype control antibody)
Method: Median tumor volumes are presented for groups of 8 mice at each data point. See Example 1.
as §1
Anti-fucosyl-GM1 antibody BMS-986012 was administered at 0.3 mg/kg i.p. to mice on days 7, 10, 13, 17 and 21 post implantation, and cisplatin was administered at 3 mg/kg on days 7, 14, 21 and 28. Because fucosyl-GM1 is a ganglioside rather than a protein, and is the same in mice as in humans, there was no need to use a “mouse surrogate” for mouse studies. Cisplatin was administered in combination with BMS-986012 and with an isotype control antibody at 3 mg/kg as a control. […]

Fc receptors = conditions: non-fucosylated Fc domain; cited from earlier work
[6] = Binding of BMS-986012 to fucosyl-GM1
Source text: as §2

Compound: COc1cc([C@@H]2c3cc4c(cc3[C@@H](O[C@@H]3O[C@@H]5CO[C@@H](C)O[C@H]5[C@H](O)[C@H]3O)[C@H]3COC(=O)[C@H]23)OCO4)cc(OC)c1O [etoposide, reference compound]
tumor growth (median tumor volume, FIG. 2) (DMS79 cells [1]): somewhat effective as monotherapy to reduce tumor growth

Compound: nivolumab: anti-PD-1 mAb comprising heavy chains of SEQ ID NO: 13 and light chains of SEQ ID NO: 14
published ORR [2]: 12%
published disease control rate [2]: 29%

antigen-specific binding to GM1 [3]: no detectable antigen-specific binding
Compound: BMS-986012: anti-fucosyl-GM1 mAb comprising heavy chains of SEQ ID NO: 3 and light chains of SEQ ID NO: 4
antibody-dependent cellular cytotoxicity (ADCC) [4]: enhanced
tumor growth (median tumor volume, FIG. 1) (DMS79 cells [5]): effective as monotherapy to reduce tumor growth
affinity for Fc receptors (Fc receptors): higher affinity
binding to fucosyl-GM1 [6]: high-affinity and dose-dependent saturable binding
tumor growth (median tumor volume, FIG. 2) (DMS79 cells [1]): somewhat effective as monotherapy to reduce tumor growth

Compound: N.N.[Cl][Pt][Cl] [cisplatin, reference compound]
tumor growth (median tumor volume, FIG. 1) (DMS79 cells [5]): effective as monotherapy to reduce tumor growth
